Measured values as given in paper PMC7662321, “Andrographolide and Its 14-Aryloxy Analogues Inhibit Zika and Dengue Virus Infection” (Molecules, 2020).

How the values were obtained:
ZIKV = experiment: Percentage of ZIKV infection of A549 cells by flow cytometry; type: cell-based, Zika virus; settings: A549, MOI 5, 10 and 25 µM, 24 h, vs vehicle
Procedure: To confirm the effects of andrographolide and the andrographolide analogues on ZIKV infection, A549 cells were infected with ZIKV at MOI of 5 for 2 h, and subsequently treated with the compounds at concentrations of 10 and 25 μM or with vehicle for 24 h. The cells were harvested for determination of the percentage of infection by flow cytometry, while the supernatants were collected for determination of viral titer by standard plaque assay.
HEK293T/17 or A549 cells were cultured in six-well plates under standard conditions until the cells reached 80% confluence. HEK293T/17 cells were infected with DENV 2, while A549 cells were infected with ZIKV Thai strain at MOI 5 for 2 h at 37 °C and 5% CO2 in culture medium without FBS. Mock infection was undertaken in parallel. After the infection period, the medium was removed and replaced with complete medium (including FBS) containing 0.1% DMSO (no treatment control) or the appropriate concentration of each compound and cells were again incubated under standard conditions. At 24 h post-treatment, cells were harvested for determination of effects of compounds on percentage of infection and supernatant was collected for determination of viral productivity. All experiments were undertaken independently in triplicate with duplicate plaque assay.
Mock- or viral-infected cells (with or without compound treatment) were harvested at an appropriate time point then incubated with 10% normal goat serum (NGS; Gibco Invitrogen) in PBS-immunofluorescence assay (IFA) buffer on ice for 30 min. The cells were washed with 800 µL of 1% BSA/PBS-IFA and fixed with 200 µL of 4% paraformaldehyde in PBS-IFA at room temperature in the dark for 20 min. After washing with 800 µL of 1% BSA/PBS-IFA, cells were permeabilized with 200 µL of 0.2% Triton X-100 in PBS-IFA for 10 min at room temperature in the dark. Subsequently, the cells were washed with 800 µL of 1% BSA/PBS-IFA followed by overnight incubation with 50 µL of primary antibody (1:150 dilution of pan-specific anti-dengue virus E protein antibody HB114 for DENV and 1:2 dilution of anti-flavivirus antibody HB112 for ZIKV). After washing twice with 800 µL of 1% BSA/PBS-IFA, the cells were incubated with 50 µL of a goat anti-mouse IgG conjugated with fluorescein isothiocyanate (FITC; KPL, Guilford, UK) diluted 1:40 with 1% BSA/PBS-IFA at room temperature in the dark for 1 h. The cells were washed twice with 800 µL of 1% BSA/PBS-IFA and resuspended in 100 µL of PBS-IFA. The fluorescence signal was analyzed by flow cytometry on a BD FACalibur cytometer (Becton Dickinson, BD Biosciences, San Jose, CA, USA) using CellQuest™ software (Version 6). All experiments were undertaken independently in triplicate. All raw flow cytometry data plots are provided in Supplementary Figures S13–S19.

[1] = MTT cytotoxicity assay in Vero cells; type: cell-based; settings: African green monkey, Vero cells (monkey kidney), 24 h post-treatment
Procedure: Cytotoxicity of each compound towards cells for four selected cell lines in the range of 1 to 500 µM was evaluated using the MTT (3-(4,5-dimethylthiazol-2-yl)-2,5-diphenyltetrazolium bromide) assay at 24 h post-treatment, in parallel with control and vehicle-treated cells (0.1% dimethyl sulfoxide (DMSO)). The 50% cytotoxic concentration (CC50) values calculated from the dose-response curve (Supplementary Figures S2–S5) are shown in Table 1. Overall, a range of cytotoxicities were seen from the four compounds across the […]. The most cytotoxic combination was ZAD-1 and BHK-21 cells, while the least cytotoxic combination was andrographolide and BHK-21 cells (Table 1).
A549 cells were cultured in ninety-six-well tissue culture plates under standard conditions until the cells reached 90% confluence. The cell culture medium was removed and then cells were incubated with various concentrations of andrographolide (1–100 μM) diluted in complete medium with FBS prior to being cultured for 24 h under standard conditions before analysis using either the Vybrant MTT Cell proliferation assay kit (V13154, Invitrogen) or the alamarBlue (Thermo Fischer Scientific, Waltham, MA, USA) assay kit according to the manufacturers recommendations. Values were determined from 8 (MTT assay) or 3 (alamarBlue) independent replicates. Negative controls (only media and media with 0.1% DMSO) and positive controls (5% DMSO) were included. To determine cell number, cell cultures were trypsinized by the addition of 0.25% Trypsin/0.1% ethylelediaminetetraacetic acid (EDTA) for 3 min and then cell suspensions were diluted with 0.4% trypan blue solution. Cells were counted using a hemocytometer. Cell morphology was additionally observed under an inverted microscope after 24 h treatment with various concentrations of each compound.
Figu re S3. Cytotoxicity of ZAD -1 (A), ZA D-2 (B), ZA D-3 (C), and andro grapholide (D) to Ve r o (monkey kidney) cells. Ve r o cells were incubated with various concentrations of each compound for 24 hrs followed by MTT cell viability assay. The experiment was undertaken independently in 4 replicates. DMSO at the same concentrations was used as a control. 10% ethanol, PBS, and milli- Q water were used as a positive control of cell death. The bars show mean ± SD. […]

HSPA1A = experiment: 2D-PAGE proteomic analysis of treated A549 cells, HSPA1A spot; type: cell-based, human; settings: A549, 25 µM, 24 h
Procedure: A549 cells were therefore treated with either vehicle (0.025% DMSO), or with 25 μM of andrographolide or ZAD-1, and at 24 h post-treatment, proteins were prepared and subjected to two-dimension polyacrylamide gel electrophoresis (2D-PAGE). The experiment was undertaken independently in triplicate and representative gels are shown Figure 5, with all replicates being shown in Supplementary Figure S12. […] All of these protein spots were cut from the gels and then subjected to in-gel tryptic digestion followed by mass spectrometry. MASCOT (Matrix Science Inc., Boston, MA, USA) search of the resultant masses identified 4 proteins (Table 3), namely heat shock protein 70 kDa 1A (HSPA1A), phosphoglycerate kinase 1 (PGK1), transketolase (TKT) and nuclear transport protein of GTP-binding nuclear protein Ran (Ran).
2D-PAGE and mass spectroscopic identification of differentially expressed spots was undertaken essentially as previously described. […] Image data were analyzed using Image Master™ 2D Platinum software version 7.0 (GenBio, Geneva, Switzerland). Each spot was evaluated on intensity, volume and area. […] After tryptic in-gel digestion, peptide masses were determined by LC-MS/MS using SYNAPT high definition MS (HDMS) (Waters Corp., Milford, MA, USA).

C=C1CC[C@@H]2[C@](C)(CO)[C@H](O)CC[C@@]2(C)[C@@H]1C/C=C1/C(=O)OC[C@H]1O [Andrographolide]
number of ZIKV-infected cells (percentage of infection) (ZIKV): significantly reduced | CC50 at 24 h [1]: 469 ± 73 µM | Intensity Level, spot 1 HSPA1A (HSPA1A): 2410.2

C=C1CC[C@@H]2[C@]3(C)COC(C)(C)O[C@@H]3CC[C@@]2(C)[C@@H]1C/C=C1/C(=O)OC[C@@H]1Oc1c(Cl)cc(Cl)c2ccc(C)nc12 [ZAD-1]
number of ZIKV-infected cells (percentage of infection) (ZIKV): significantly reduced | CC50 at 24 h [1]: 510 ± 53 µM | Intensity Level, spot 1 HSPA1A (HSPA1A): 1279.25
